Measured values from patent US7205382B2, “Peptides, the production and use thereof for binding immunoglobulins” (Fresenius Medical Care Affina GmbH, priority 2000, dated 2007).
Bridge positions count the residues as written; N and C are the ends. Square brackets hold non-standard residues; d marks the D form. Ends that are not written are not given here. cellulose = not defined here; βAla = NCCC(=O)O

Key:
Type in all cases: binding
Design in all cases: key: No binding of immunoglobulin for the defined peptide variant, detection negative: 0; Binding of immunoglobulin for the defined peptide variant, detection positive: +
human IgG-Fc = assay: Cellulose-immobilized 13-mer peptide variants incubated with human IgG-Fc, anti-human IgG-AP detection; conditions: IgG-Fc 1 μg/ml in blocking buffer, 3 h room temperature
Method: (§1) Peptides consisting of 13 amino acids were synthesized by solid phase synthesis (Houghten, 1985) on a cellulose matrix with (βA)(βA) as a spacer group.
(§2) The immobilized peptides were tested for their immunoglobulin binding capability by incubation with human IgG-Fc in a buffered solution and by incubation with human plasma.
(§3) Thus, the peptide variants immobilized on solid phases were washed with T-TBS buffer (136 mM NaCl, 1.6 mM KCl, 0.05% (v/v) Tween 20, 50 mM Tris-HCl, pH 8.0) and subsequently treated with blocking buffers (5% (w/v) saccharose, 4% (w/v) bovine serum albumin in T-TBS). Incubation of the immobilized peptides with IgG-Fc (1 μg/ml) in blocking buffer and human serum (diluted 1:10,000 in blocking buffer) was effected for 3 h at room temperature. For checking the specificity of the binding, buffered serum albumin solution (blocking buffer) without addition was included as a control. Thereafter, the peptide variants immobilized on the solid phases were washed three more times with T-TBS buffer.
(§4) After incubation with alkaline phosphatase-conjugated anti-human IgG antibody (1.2 μg/ml) in blocking buffer, detection of the immunoglobulin binding was effected by means of NBT (nitroblue tetrazolium chloride)/BCIP (5-bromo-4-chloro-3-indolyl phosphate toluidine salt) as a substrate (200 μl of parent solution (18.75 mg/ml NBT and 9.4 mg/ml BCIP in 67% (v/v) DMSO) in 10 ml developing buffer (100 mM Tris-HCl, 100 mM NaCl, 5 mM MgCl2, pH 9.5)).

[1] = test system: immunoglobulins in human plasma; assay: Cellulose-immobilized 13-mer peptide variants incubated with human plasma, anti-human IgG-AP detection; conditions: human plasma as sample, diluted 1:10,000 in blocking buffer, 3 h room temperature
Method: as §1, §2, §3, §4

serum albumin = assay: Cellulose-immobilized 13-mer peptide variants incubated with serum albumin (negative control), anti-human IgG-AP detection; conditions: blocking buffer without addition, 3 h room temperature
Method: as §1, §2, §3, §4

Substance	Result for incubation with human IgG-Fc (immunoglobulin binding detection) (human IgG-Fc)	Result for incubation with human plasma (immunoglobulin binding detection) [1]	Result for incubation with serum albumin (immunoglobulin binding detection) (serum albumin)
01A: cellulose-bound 13-mer variant ACAWHLGELVWCT-(βA)(βA) (ACAWHLGELVWCT-{βAla-βAla-cellulose}; disulfide 2-12 (inferred); reading uncertain; also: printed as ACAWHLGELVWCT-(βA)(βA))	+	+	0
01C: cellulose-bound 13-mer variant CCAWHLGELVWCT-(βA)(βA) (CCAWHLGELVWCT[βAla][βAla]; cysteine pairing not given here; also: bound to cellulose support)	0	0	0
01D: starting 13-mer DCAWHLGELVWCT-(βA)(βA), R1=amino, cellulose-bound	+	+	0
01E: cellulose-bound 13-mer variant ECAWHLGELVWCT-(βA)(βA) (ECAWHLGELVWCT-{βAla-βAla-cellulose}; disulfide 2-12 (inferred); reading uncertain; also: printed as ECAWHLGELVWCT-(βA)(βA))	+	+	0
01F: cellulose-bound 13-mer variant FCAWHLGELVWCT-(βA)(βA) (FCAWHLGELVWCT-{βAla-βAla-cellulose}; disulfide 2-12 (inferred); reading uncertain; also: printed as FCAWHLGELVWCT-(βA)(βA))	0	0	0
01G: cellulose-bound 13-mer variant GCAWHLGELVWCT-(βA)(βA) (GCAWHLGELVWCT-{βAla-βAla-cellulose}; disulfide 2-12 (inferred); reading uncertain; also: printed as GCAWHLGELVWCT-(βA)(βA))	+	+	0
01H: cellulose-bound 13-mer variant HCAWHLGELVWCT-(βA)(βA) (HCAWHLGELVWCT-{βAla-βAla-cellulose}; disulfide 2-12 (inferred); reading uncertain; also: printed as HCAWHLGELVWCT-(βA)(βA))	+	0	0
01I: cellulose-bound 13-mer variant ICAWHLGELVWCT-(βA)(βA) (ICAWHLGELVWCT-{βAla-βAla-cellulose}; disulfide 2-12 (inferred); reading uncertain; also: printed as ICAWHLGELVWCT-(βA)(βA))	0	0	0
01K: cellulose-bound 13-mer variant KCAWHLGELVWCT-(βA)(βA) (KCAWHLGELVWCT-{βAla-βAla-cellulose}; disulfide 2-12 (inferred); reading uncertain; also: printed as KCAWHLGELVWCT-(βA)(βA))	+	0	0
